For the test, the system named is 327498-153-R-J2-PDC multicell spheroid viability. Nature of the test: Anticancer human tumor 327498-153-R-J2-PDC patient-derived uterine carcinosarcoma cell line growth inhibition [IpAb]. As to conditions: for viability, T/C: stronger effect = lower value. In a few lines:
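Spheroids of 60% malignant cells, 25% HUVEC and 15% MSC were exposed to targeted agents combined with ipatasertib or abemaciclib. Doses started at or near clinical Cmax (10 microM when unknown) and fell in half-log steps.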

“And” between values parts separate entries of the source, which are not always exact repeats. Identical values can stand only once. Bounds are passed on as bounds.
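Also: spheroids exposed to agents for 7 days.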
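For viability, T/C in this document: 100% = DMSO vehicle control viability.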

On to `Cn1ncc(Cl)c1-c1cc(C(=O)NC(CN)Cc2cccc(F)c2)sc1Cl` (configuration not stated) + CC(C)NCC(C(=O)N1CCN(c2ncnc3c2C(C)CC3O)CC1)c1ccc(Cl)cc1, for which the IC50 reads like this: (curve of first compound, second compound 0.1 µM) 1310 nM; (curve of first compound, second compound 0.316 µM) 1640 nM; (curve of first compound, second compound 1 µM) 1250 nM; (curve of first compound, second compound 3.16 µM) 920 nM; (curve of first compound, second compound 10 µM) < 31.6 nM. Besides, the viability, T/C is 98.5% (second compound 0.1 µM, first compound 0.0316 µM); 86.4% (second compound 0.1 µM, first compound 0.1 µM); 70% (second compound 0.1 µM, first compound 0.316 µM); 53.9% (second compound 0.1 µM, first compound 1 µM); 38.1% (second compound 0.1 µM, first compound 3.16 µM); 0.27% (second compound 0.1 µM, first compound 10 µM). The viability, T/C was 77.7% (second compound 0.316 µM, first compound 0.0316 µM); 77.5% (second compound 0.316 µM, first compound 0.1 µM); 63.2% (second compound 0.316 µM, first compound 0.316 µM); 60.1% (second compound 0.316 µM, first compound 1 µM); 40% (second compound 0.316 µM, first compound 3.16 µM); 0.3% (second compound 0.316 µM, first compound 10 µM). The viability, T/C runs as follows: (second compound 1 µM, first compound 0.0316 µM) 63.4%; (second compound 1 µM, first compound 0.1 µM) 55.8%; (second compound 1 µM, first compound 0.316 µM) 55.3%; (second compound 1 µM, first compound 1 µM) 52.9%; (second compound 1 µM, first compound 3.16 µM) 39.8%; (second compound 1 µM, first compound 10 µM) 0.31%. Moreover, the viability, T/C (second compound 3.16 µM, first compound 0.0316 µM) was 50.5%; the viability, T/C (second compound 3.16 µM, first compound 0.1 µM) is 56.8%; the viability, T/C (second compound 3.16 µM, first compound 0.316 µM) is 50%; the viability, T/C (second compound 3.16 µM, first compound 1 µM) is 49.5%; the viability, T/C (second compound 3.16 µM, first compound 3.16 µM) was 39.2%; the viability, T/C (second compound 3.16 µM, first compound 10 µM) is 0.3%. In addition, the viability, T/C is 35.5% (second compound 10 µM, first compound 0.0316 µM); 45.2% (second compound 10 µM, first compound 0.1 µM); 41.7% (second compound 10 µM, first compound 0.316 µM); 35.8% (second compound 10 µM, first compound 1 µM); 35.6% (second compound 10 µM, first compound 3.16 µM); 0.42% (second compound 10 µM, first compound 10 µM).
`Cn1ncc(Cl)c1-c1cc(C(=O)NC(CN)Cc2cccc(F)c2)sc1Cl` (configuration not stated): the viability, T/C (compound 0.0316 µM) is 98.6% and 91.8%; the viability, T/C (compound 0.1 µM) is 85.3% and 76%; the viability, T/C (compound 0.316 µM) was 74.4% and 67.2%; the viability, T/C (compound 1 µM) was 53.1% and 49%; the viability, T/C (compound 3.16 µM) is 42.2% and 36.7%; the viability, T/C (compound 10 µM) is 0.31% and 0.21%. Also, the concentration for half-maximal inhibition (IC50) (curve of compound) is 1480 nM and 1100 nM.
